# Assay results taken from patent US20100119655A1, “MUSCULAR PROTEIN DENATURATION INHIBITOR, ADDITIVE FOR A FISH MEAT-ORIGIN GROUND MEAT, FISH MEAT-ORIGIN GROUND MEAT CONTAINING THE SAME AND METHOD OF PRODUCING THE SAME” (Nagasaki Prefectural Government, priority 2007, published 2010).
# Experiments:
# [1] = molecular target: T1, myosin (Cyprinus carpio, UniProt Q90339); test: Heat denaturation of myosin at 35° C., followed by loss of Ca-ATPase activity (denaturation rate constant KD); assay type: biochemical, carp (Cyprinus carpio); conditions: compound added by 1M; myosin heated at 35° C.; FIG. 1
# T1 construct: myofibrils were prepared from dorsal meat of carp (Cyprinus carpio); from tissue; host or cells: dorsal muscle of carp
# From the text: (§1) In this embodiment, determination of the effect of inhibiting denaturation of fish meat-origin muscular proteins employs a method for calculating a rate of denaturation of myosin based on disappearance of Ca-ATPase activity as bioactivity of myosin {Tohru Oizumi et al.: Gyoruikingenseni-no-kanetsuhensei-ni-taisuru-to-oyobi-toarukohru-no-hogokohka-no-teiryokosatsu (Quantitative Examination of Effect of Protecting Sugars and Sugar Alcohols from Heat Denaturation of Fish Myofibril. Journal of the Japanese Society of Fisheries Science, 47, 901-908 (1981)}. Said method in this embodiment will be described as follows by dividing into a method for determining the effect of inhibiting heat denaturation and a method for determining effect of inhibiting freeze denaturation.
# (§2) Firstly, a method for determining the effect of inhibiting heat denaturation is described. […] Then, changes in Ca-ATPase activity of the fish meat-origin muscular proteins heated are analyzed according to a first-order reaction equation to calculate a denaturation rate constant (KD). Ca-ATPase activity is measured by preparing a reaction composition liquid composed of 0.5M KCl, 25 mM Tris-maleate (pH 7.0), 5 mM CaCl2, 1 mM ATP and 0.2 to 0.3 mg/ml of fish meat-origin muscular proteins subjected to heating and ice cold and determining free inorganic phosphate quantitatively. Then, denaturation rate constant is calculated from Ca-ATPase activity obtained and heating time. Consequently, if the denaturation rate constant is smaller, the effect of inhibiting denaturation of fish meat-origin muscular proteins is significant, and if the denaturation rate constant is larger, the effect of inhibiting denaturation of fish meat-origin muscular proteins is small.
# After myofibrils were prepared from dorsal meat of carp (Cyprinus carpio) according to a method by Noboru Katoh et al. {Noboru Katoh et al.: Gyruikingenseni-ATPase-no-seikagakuteki-kenkyu (Biochemical Research of Fish Myofibrillary ATPase). Journal of the Japanese Society of Fisheries Science, 43, 857-867 (1977)}, the myofibrils were dissolved in 0.5M KCl in the presence of ATP-Mg and 40 to 55% ammonium sulfate fraction was used as myosin by ammonium sulfate fractionation. […] After 5% perchloric acid was added thereto to stop the reaction and filter the product, free inorganic phosphate was subjected to colorimetric determination by phosphomolybdic acid method to calculate a logarithmic value of denaturation rate constant.
# [2] = test system: myofibrillar proteins; test: Freeze denaturation of myofibrillar proteins, remaining Ca-ATPase activity after cryopreservation at −20° C.; assay type: biochemical, carp (Cyprinus carpio); conditions: approximately 1 month, FIG. 3
# Method: Next, a method for determining the effect of inhibiting freeze denaturation will be described. […] In this case, a comparison is made not by an absolute value of denaturation rate constant but a relative value thereof. The measurement of Ca-ATPase activity is the same as above.
# The myofibrils were taken approximately 1 month later and added to 0.5M KCl, 25 mM Tris-maleate (pH 7.0), 5 mM CaCl2 and 1 mM ATP to prepare a reaction composition liquid to be reacted at 25° C. After 5% perchloric acid was added thereto to stop the reaction and filter the product, free inorganic phosphate was subjected to colorimetric determination by phosphomolybdic acid method to calculate Ca-ATPase activity and analyze the extent of denaturation observed from the decline of Ca-ATPase activity.
# [3] = test system: myofibrillar proteins; test: Heat denaturation of myofibrillar proteins at 42° C., followed by loss of Ca-ATPase activity (denaturation rate constant KD); assay type: biochemical, carp (Cyprinus carpio); conditions: for decline of rate of denaturation of myofibrillar proteins (logarithmic value of denaturation rate constant KD): compound added by 1M, myofibrils heated at 42° C., FIG. 2
# From the text: as §1, §2
# After 5% perchloric acid was added thereto to stop the reaction and filter the product, free inorganic phosphate was subjected to colorimetric determination by phosphomolybdic acid method to calculate a logarithmic value of denaturation rate constant.
# [4] = test system: myofibrillar proteins; test: Dissolution of myofibrillar proteins, soluble proteins in supernatant after centrifugal separation; assay type: biochemical, carp (Cyprinus carpio); conditions: addition of 0.6M; FIG. 4
# [5] = test system: myofibrillar proteins; conditions: relative to sorbitol; Non-Patent Document 1; cited from earlier work
# T1 sequence (Q90339 whole entry): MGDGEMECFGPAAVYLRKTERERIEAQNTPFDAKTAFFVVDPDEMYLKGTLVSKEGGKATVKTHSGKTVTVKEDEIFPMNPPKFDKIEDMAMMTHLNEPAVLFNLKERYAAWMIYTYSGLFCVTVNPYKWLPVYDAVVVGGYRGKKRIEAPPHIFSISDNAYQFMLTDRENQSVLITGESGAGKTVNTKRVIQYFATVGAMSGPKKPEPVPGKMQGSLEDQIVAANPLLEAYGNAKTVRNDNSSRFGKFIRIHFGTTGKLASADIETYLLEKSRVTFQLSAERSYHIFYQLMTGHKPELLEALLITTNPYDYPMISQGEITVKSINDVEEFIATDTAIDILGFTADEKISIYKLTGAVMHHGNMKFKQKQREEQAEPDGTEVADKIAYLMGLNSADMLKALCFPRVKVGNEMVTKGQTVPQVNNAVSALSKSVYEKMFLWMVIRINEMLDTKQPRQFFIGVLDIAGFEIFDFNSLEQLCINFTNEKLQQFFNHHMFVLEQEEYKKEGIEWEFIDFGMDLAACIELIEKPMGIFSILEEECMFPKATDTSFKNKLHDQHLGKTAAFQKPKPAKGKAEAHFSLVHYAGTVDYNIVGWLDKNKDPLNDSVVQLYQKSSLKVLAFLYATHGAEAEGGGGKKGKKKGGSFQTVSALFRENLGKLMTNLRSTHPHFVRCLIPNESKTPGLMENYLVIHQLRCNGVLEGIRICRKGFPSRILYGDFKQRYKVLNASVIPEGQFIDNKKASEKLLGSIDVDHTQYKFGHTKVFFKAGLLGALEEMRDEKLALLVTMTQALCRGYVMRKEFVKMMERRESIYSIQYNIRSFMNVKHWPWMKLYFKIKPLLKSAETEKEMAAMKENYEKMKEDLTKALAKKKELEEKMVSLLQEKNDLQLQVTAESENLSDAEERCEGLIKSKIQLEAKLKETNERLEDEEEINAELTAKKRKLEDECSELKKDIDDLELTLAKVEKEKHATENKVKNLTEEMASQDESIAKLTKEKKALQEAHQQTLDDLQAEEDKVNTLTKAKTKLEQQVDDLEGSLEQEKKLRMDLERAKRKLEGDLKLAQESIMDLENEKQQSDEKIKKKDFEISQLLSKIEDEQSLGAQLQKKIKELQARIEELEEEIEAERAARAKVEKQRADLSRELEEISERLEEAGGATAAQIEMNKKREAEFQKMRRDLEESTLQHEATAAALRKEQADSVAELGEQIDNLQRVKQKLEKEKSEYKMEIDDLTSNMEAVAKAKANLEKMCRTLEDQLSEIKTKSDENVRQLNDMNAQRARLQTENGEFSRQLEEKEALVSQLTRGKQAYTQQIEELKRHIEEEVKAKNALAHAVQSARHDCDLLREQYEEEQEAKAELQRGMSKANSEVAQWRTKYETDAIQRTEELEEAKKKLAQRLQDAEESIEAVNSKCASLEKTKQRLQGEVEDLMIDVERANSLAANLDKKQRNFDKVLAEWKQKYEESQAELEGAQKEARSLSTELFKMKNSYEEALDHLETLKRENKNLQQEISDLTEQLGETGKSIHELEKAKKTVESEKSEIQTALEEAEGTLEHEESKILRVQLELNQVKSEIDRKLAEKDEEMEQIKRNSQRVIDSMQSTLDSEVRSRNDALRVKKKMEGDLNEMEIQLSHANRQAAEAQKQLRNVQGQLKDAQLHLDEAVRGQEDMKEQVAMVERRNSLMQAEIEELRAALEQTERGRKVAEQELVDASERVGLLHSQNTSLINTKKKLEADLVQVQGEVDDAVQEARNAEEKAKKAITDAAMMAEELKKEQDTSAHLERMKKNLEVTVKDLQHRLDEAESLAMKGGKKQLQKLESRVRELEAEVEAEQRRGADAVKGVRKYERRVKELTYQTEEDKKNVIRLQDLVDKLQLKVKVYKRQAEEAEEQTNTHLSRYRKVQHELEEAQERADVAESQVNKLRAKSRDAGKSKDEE
SMILES,decline of rate of denaturation of myosin (logarithmic value of denaturation rate constant KD) [1],"effect of inhibiting freeze denaturation (Ca-ATPase activity), ranking [2]",decline of rate of denaturation of myofibrillar proteins (logarithmic value of denaturation rate constant KD) [3],"dissolution of myofibrillar proteins at 0.6M, in words [4]","inhibition of heat denaturation of myofibrillar proteins, times sorbitol [5]","effect of stabilizing myofibrillar proteins, times sodium gluconate ([3]; relative to sodium gluconate, worked out from own data and Non-Patent Document 1)"
CC(=O)[O-].[Na+] [sodium acetate],1.1,smallest effect of inhibiting freeze denaturation,0.3,,,
OC[C@@H](O)[C@@H](O)[C@H](O)[C@@H](O)CO [sorbitol],0.7,"smallest effect of inhibiting freeze denaturation, followed by sorbitol",0.6,not dissolved at all,,
N[C@@H](CCC(=O)[O-])C(=O)[O-].[Na+].[Na+] [sodium glutamate],1.7,strongest effect of inhibiting freeze denaturation,0.9,,,
O=C([O-])[C@H](O)[C@@H](O)[C@H](O)[C@H](O)CO.[Na+] [sodium gluconate],,,,,about 1.5 times,
O=C([O-])CC(O)(CC(=O)[O-])C(=O)[O-].[Na+].[Na+].[Na+] [sodium citrate],1.7,strongest effect of inhibiting freeze denaturation,0.9,,,at least 1.3 times
